Target: T1, human Nav1.7 channels (Homo sapiens, UniProt Q15858)
T1 construct: expressed in transfected cells; host or cells: CHO
Assay: FRET assay, human Nav1.7 (EFS on FDSS)
Type: cell-based
Settings: CHO cells expressing human Nav1.7, read-out: IC50 against Nav1.7
Outline: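 IC50 was derived from normalized 440 nm fluorescence ratios of the EFS-evoked membrane-potential response read on FDSS. Recombinant CHO cells were sequentially dye-loaded with coumarin/oxonol FRET pair at room temperature in pH 7.4 buffer before compound addition.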

T1 sequence (Q15858 whole entry): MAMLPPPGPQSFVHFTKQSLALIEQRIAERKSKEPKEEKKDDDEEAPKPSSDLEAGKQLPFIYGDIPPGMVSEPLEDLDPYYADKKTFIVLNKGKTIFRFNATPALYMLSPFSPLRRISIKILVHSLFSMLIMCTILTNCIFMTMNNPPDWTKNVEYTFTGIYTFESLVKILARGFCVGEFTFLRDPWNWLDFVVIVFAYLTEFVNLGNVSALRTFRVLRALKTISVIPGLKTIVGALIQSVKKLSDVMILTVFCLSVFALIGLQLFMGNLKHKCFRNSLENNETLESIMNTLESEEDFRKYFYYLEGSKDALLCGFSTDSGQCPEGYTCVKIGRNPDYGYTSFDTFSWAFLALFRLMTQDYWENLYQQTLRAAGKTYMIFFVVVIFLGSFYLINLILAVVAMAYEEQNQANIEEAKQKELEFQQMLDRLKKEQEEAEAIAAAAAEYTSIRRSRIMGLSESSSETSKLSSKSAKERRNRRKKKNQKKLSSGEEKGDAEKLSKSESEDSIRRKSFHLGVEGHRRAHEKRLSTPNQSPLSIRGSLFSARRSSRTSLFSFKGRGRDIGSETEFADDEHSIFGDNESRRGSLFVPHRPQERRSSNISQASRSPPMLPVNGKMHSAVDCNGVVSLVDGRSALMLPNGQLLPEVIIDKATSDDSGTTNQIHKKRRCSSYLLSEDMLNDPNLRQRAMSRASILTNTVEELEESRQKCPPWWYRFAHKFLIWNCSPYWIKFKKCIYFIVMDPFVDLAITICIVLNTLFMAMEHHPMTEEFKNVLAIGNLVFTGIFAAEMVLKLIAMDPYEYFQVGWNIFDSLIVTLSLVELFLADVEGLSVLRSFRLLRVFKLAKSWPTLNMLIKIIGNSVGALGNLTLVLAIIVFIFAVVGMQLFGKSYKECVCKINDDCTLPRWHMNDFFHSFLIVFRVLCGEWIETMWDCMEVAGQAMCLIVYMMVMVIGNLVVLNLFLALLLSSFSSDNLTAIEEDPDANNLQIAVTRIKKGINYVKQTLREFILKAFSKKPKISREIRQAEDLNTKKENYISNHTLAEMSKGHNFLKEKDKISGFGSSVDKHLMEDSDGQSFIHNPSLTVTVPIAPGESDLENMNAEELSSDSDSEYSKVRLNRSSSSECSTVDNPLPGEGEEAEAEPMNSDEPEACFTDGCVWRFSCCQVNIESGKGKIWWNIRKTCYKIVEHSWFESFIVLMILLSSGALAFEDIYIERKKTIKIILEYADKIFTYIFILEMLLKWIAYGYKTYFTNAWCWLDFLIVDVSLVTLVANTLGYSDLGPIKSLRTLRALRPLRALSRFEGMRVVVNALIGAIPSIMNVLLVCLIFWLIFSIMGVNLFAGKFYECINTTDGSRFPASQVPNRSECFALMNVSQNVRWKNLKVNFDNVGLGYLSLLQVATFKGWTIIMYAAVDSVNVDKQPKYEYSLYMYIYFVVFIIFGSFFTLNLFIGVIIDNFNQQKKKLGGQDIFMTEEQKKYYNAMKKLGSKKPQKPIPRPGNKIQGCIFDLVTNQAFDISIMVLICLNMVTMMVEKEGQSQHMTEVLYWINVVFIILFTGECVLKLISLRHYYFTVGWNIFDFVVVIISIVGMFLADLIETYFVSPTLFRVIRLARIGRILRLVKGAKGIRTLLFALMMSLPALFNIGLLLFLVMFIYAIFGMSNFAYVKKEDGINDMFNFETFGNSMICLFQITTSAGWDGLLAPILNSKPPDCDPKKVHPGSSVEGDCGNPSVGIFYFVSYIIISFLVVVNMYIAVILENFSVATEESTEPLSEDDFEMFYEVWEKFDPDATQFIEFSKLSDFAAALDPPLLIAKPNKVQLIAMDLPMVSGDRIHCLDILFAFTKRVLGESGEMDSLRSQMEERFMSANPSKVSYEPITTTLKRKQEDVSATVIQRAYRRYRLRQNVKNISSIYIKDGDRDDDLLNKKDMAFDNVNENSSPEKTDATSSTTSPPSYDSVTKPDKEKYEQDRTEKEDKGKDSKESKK

IC50 [nM]	Structure (SMILES)
< 1000	CCC(=O)Nc1cc(C(=O)NC(C)c2ccc(OCC(F)(F)F)c(Cl)c2)ccn1 (single isomer, unassigned) [Example 673, N-(1-(3-chloro-4-(2,2,2-trifluoroethoxy)phenyl)ethyl)-2-propionamidoisonicotinamide]
< 1000	CC(=O)Nc1cc(C(=O)NCc2ccc(OCC(F)F)c(C)c2)cc(C)n1 [Example 993, 2-acetamido-N-(4-(2,2-difluoroethoxy)-3-methylbenzyl)-6-methylisonicotinamide]
< 1000	COc1cc(C(C)NC(=O)c2cc(C)nc(NC(=O)C(C)C)c2)cnc1OCC(F)(F)F (single isomer, unassigned) [Example 487, 2-isobutyramido-N-(1-(5-methoxy-6-(2,2,2-trifluoroethoxy)pyridin-3-yl)ethyl)-6-methylisonicotinamide]
< 1000	CCC(=O)Nc1cc(C(=O)NCc2cnc(OCC(F)F)c(Cl)c2)cc(C)n1 [Example 618, N-((5-chloro-6-(2,2-difluoroethoxy)pyridin-3-yl)methyl)-2-methyl-6-propionamidoisonicotinamide]
< 1000	CC(=O)Nc1cc(C(=O)NC(C)c2cc(C(F)(F)F)ccc2F)ccn1 (single isomer, unassigned) [Example 1096, 2-acetamido-N-(1-(2-fluoro-5-(trifluoromethyl)phenyl)ethyl)isonicotinamide]
< 1000	CCC(=O)Nc1nc(C)cc(C(=O)NC(C)c2cnc(OCC(F)(F)F)c(Cl)c2)n1 (single isomer, unassigned) [Example 214, N-(1-(5-chloro-6-(2,2,2-trifluoroethoxy)pyridin-3-yl)ethyl)-6-methyl-2-propionamidopyrimidine-4-carboxamide]
< 1000	O=C(NCc1ccc(OCC(F)(F)F)nc1N1CCCCC1)c1ccnc(NC(=O)C2CC2)c1 [Example 304, 2-(cyclopropanecarboxamido)-N-((2-(piperidin-1-yl)-6-(2,2,2-trifluoroethoxy)pyridin-3-yl)methyl)isonicotinamide]
< 1000	CCC(=O)Nc1cc(C(=O)NCc2ccc(OCC(F)(F)F)nc2N2CCCCC2)cc(C)n1 [Example 306, 2-methyl-N-((2-(piperidin-1-yl)-6-(2,2,2-trifluoroethoxy)pyridin-3-yl)methyl)-6-propionamidoisonicotinamide]
< 1000	O=C(NCc1cccc(OCC(F)(F)F)n1)c1cccc2[nH]c(=O)[nH]c12 [Example 57, 2-oxo-N-((6-(2,2,2-trifluoroethoxy)pyridin-2-yl)methyl)-2,3-dihydro-1H-benzo[d]imidazole-4-carboxamide]
< 1000	CCC(=O)Nc1cc(C(=O)NC(C)c2cnc(OCC(F)(F)F)c(F)c2)ccn1 (single isomer, unassigned) [Example 74, N-(1-(5-fluoro-6-(2,2,2-trifluoroethoxy)pyridin-3-yl)ethyl)-2-propionamidoisonicotinamide]
< 1000	CC(C)C(=O)Nc1cc(C(=O)NC(C)c2ccc(OCC(F)(F)F)cc2Cl)ccn1 (single isomer, unassigned) [Example 799, N-(1-(2-chloro-4-(2,2,2-trifluoroethoxy)phenyl)ethyl)-2-isobutyramidoisonicotinamide]
< 1000	CCCC(=O)Nc1cc(C(=O)NCc2cnc(OCC(F)F)c(CC)c2)ccn1 [Example 933, 2-butyramido-N-((6-(2,2-difluoroethoxy)-5-ethylpyridin-3-yl)methyl)isonicotinamide]
< 1000	CCC(=O)Nc1cc(C(=O)NC(C)c2ccc(OCCC(F)(F)F)nc2)ccn1 (single isomer, unassigned) [Example 115, 2-propionamido-N-(1-(6-(3,3,3-trifluoropropoxy)pyridin-3-yl)ethyl)isonicotinamide]
< 1000	CC(=O)Nc1cc(C(=O)NCc2cnc(OCC(F)(F)F)c(C)c2)ccn1 [Example 367, 2-acetamido-N-((5-methyl-6-(2,2,2-trifluoroethoxy)pyridin-3-yl)methyl)isonicotinamide]
< 1000	CC(=O)Nc1cc(C(=O)NC(C)c2ccc(OCC(F)F)c(Cl)c2)cc(C)n1 (single isomer, unassigned) [Example 1100, 2-acetamido-N-(1-(3-chloro-4-(2,2-difluoroethoxy)phenyl)ethyl)-6-methylisonicotinamide]
< 1000	Cc1cc(C(=O)NC(C)c2cnc(OCC(F)F)c(C)c2)cc(NC(=O)C2CC2)n1 (single isomer, unassigned) [Example 938, 2-(cyclopropanecarboxamido)-N-(1-(6-(2,2-difluoroethoxy)-5-methylpyridin-3-yl)ethyl)-6-methylisonicotinamide]
< 1000	COc1cc(C(C)NC(=O)c2cc(C)nc(NC(=O)C3CC3)n2)cnc1OCC(F)(F)F (single isomer, unassigned) [Example 194, 2-(cyclopropanecarboxamido)-N-(1-(5-methoxy-6-(2,2,2-trifluoroethoxy)pyridin-3-yl)ethyl)-6-methylpyrimidine-4-carboxamide]
< 1000	CC(=O)Nc1cc(C(=O)NC(C)c2cccc(OCC(F)(F)F)c2)cc(C)n1 (single isomer, unassigned) [Example 1009, 2-acetamido-6-methyl-N-(1-(3-(2,2,2-trifluoroethoxy)phenyl)ethyl)isonicotinamide]

IC50 [nM]	Structure (SMILES)
< 1000	CC(C)C(=O)Nc1cc(C(=O)NC(C)c2ccc(OCCC(F)(F)F)nc2)ccn1 (single isomer, unassigned) [Example 186, 2-isobutyramido-N-(1-(6-(3,3,3-trifluoropropoxy)pyridin-3-yl)ethyl)isonicotinamide]
< 1000	COc1nc(OCC(F)F)ccc1CNC(=O)c1cc(C)nc(NC(=O)C(C)C)c1 [Example 1157, N-((6-(2,2-difluoroethoxy)-2-methoxypyridin-3-yl)methyl)-2-isobutyramido-6-methylisonicotinamide]
< 1000	COc1nc(OCC(F)F)ccc1C(C)NC(=O)c1ccnc(NC(=O)C2CC2)c1 (single isomer, unassigned) [Example 1162, 2-(cyclopropanecarboxamido)-N-(1-(6-(2,2-difluoroethoxy)-2-methoxypyridin-3-yl)ethyl)isonicotinamide]
< 1000	CCCC(=O)Nc1cc(C(=O)NC(C)c2ccc(OCC(F)(F)F)nc2)ccn1 (single isomer, unassigned) [Example 40, 2-butyramido-N-(1-(6-(2,2,2-trifluoroethoxy)pyridin-3-yl)ethyl)isonicotinamide]
< 1000	CC(=O)Nc1cc(C(=O)NC(C)c2cnc(OCC(F)F)c(C)c2)ccn1 (single isomer, unassigned) [Example 551, 2-acetamido-N-(1-(6-(2,2-difluoroethoxy)-5-methylpyridin-3-yl)ethyl)isonicotinamide]
< 1000	CCC(=O)Nc1cc(C(=O)NC(C)c2ccc(OCC(F)(F)F)nc2)ccn1 (single isomer, unassigned) [Example 11, 2-propionamido-N-(1-(6-(2,2,2-trifluoroethoxy)pyridin-3-yl)ethyl)isonicotinamide]
< 1000	Cc1cc(C(=O)NCc2cccc(C(F)(F)F)c2Cl)cc(NC(=O)C(C)C)n1 [Example 878, N-(2-chloro-3-(trifluoromethyl)benzyl)-2-isobutyramido-6-methylisonicotinamide]
< 1000	Cc1cc(C(C)NC(=O)c2ccnc(NC(=O)C3CC3)n2)ccc1OCC(F)F (single isomer, unassigned) [Example 863, 2-(cyclopropanecarboxamido)-N-(1-(4-(2,2-difluoroethoxy)-3-methylphenyl)ethyl)pyrimidine-4-carboxamide]
< 1000	Cc1cc(C(=O)NC(C)c2cccc(OC(F)(F)F)c2)cc(NC(=O)C2CC2)n1 (single isomer, unassigned) [Example 839, 2-(cyclopropanecarboxamido)-6-methyl-N-(1-(3-(trifluoromethoxy)phenyl)ethyl)isonicotinamide]
< 1000	Cc1cc(C(=O)NCc2cccc(C(F)(F)F)c2)cc(NC(=O)C2CC2)n1 [Example 852, 2-(cyclopropanecarboxamido)-6-methyl-N-(3-(trifluoromethyl)benzyl)isonicotinamide]
< 1000	CCCC(=O)Nc1cc(C(=O)NC(C)c2cnc(OCC(F)(F)C(F)F)c(C)c2)ccn1 (single isomer, unassigned) [Example 928, 2-butyramido-N-(1-(5-methyl-6-(2,2,3,3-tetrafluoropropoxy)pyridin-3-yl)ethyl)isonicotinamide]
< 1000	CC(NC(=O)c1ccnc(NC(=O)C2CC2)c1)c1cnc(OCC(F)(F)F)c(Cl)c1 (single isomer, unassigned) [Example 79, N-(1-(5-chloro-6-(2,2,2-trifluoroethoxy)pyridin-3-yl)ethyl)-2-(cyclopropanecarboxamido)isonicotinamide]
< 1000	CC(C)C(=O)Nc1cc(C(=O)NC(C)c2cnc(OCC(F)(F)F)c(Cl)c2)ccn1 (single isomer, unassigned) [Example 522, N-(1-(5-chloro-6-(2,2,2-trifluoroethoxy)pyridin-3-yl)ethyl)-2-isobutyramidoisonicotinamide]
< 1000	CC(=O)Nc1cc(C(=O)NC(C)c2cccc(OC(F)(F)F)c2)cc(C)n1 (single isomer, unassigned) [Example 420, 2-acetamido-6-methyl-N-(1-(3-(trifluoromethoxy)phenyl)ethyl)isonicotinamide]
< 1000	Cc1cc(C(=O)NC(C)c2ccc(OCC(F)F)c(Cl)c2)cc(NC(=O)C(C)C)n1 (single isomer, unassigned) [Example 1101, N-(1-(3-chloro-4-(2,2-difluoroethoxy)phenyl)ethl)-2-isobutyramido-6-methylisonicotinamide]
< 1000	CC(=O)Nc1cc(C(=O)NCc2cccc(OC(F)(F)F)c2)ccn1 [Example 24, 2-acetamido-N-(3-(trifluoromethoxy)benzyl)isonicotinamide]
< 1000	CC(=O)Nc1cc(C(=O)NCc2cccc(C(F)(F)F)c2)cc(C)n1 [Example 532, 2-acetamido-6-methyl-N-(3-(trifluoromethyl)benzyl)isonicotinamide]

Source: US9302991B2, “Arylamide derivatives as TTX-S blockers” (RaQualia Pharma Inc., priority 2010, dated 2016)
